Measured values taken from patent US11649222B2, “Compounds” (UNIVERSITETET I OSLO, priority 2016, dated 2023).
Where two headings read alike, the source gives them in different places. Marks after values point to notes of the source that are not given here.

What was measured:
Format in all cases: cell-based
[1] = test system: P. aeruginosa 50808021 (No MBL); assay: Microbroth dilution MIC of meropenem with/without inhibitor; conditions: inhibitor 25 mg/L
Experimental: (§1) • Plate bacterial strain(s) on appropriate media: • Gram-negative bacteria with ESBLs or carbapenemases: green agar plates with 100 mg/L ampicillin • Gram-negative bacteria without β-lactamases: green agar plates • Gram-positive bacteria (Staphylococci and Enterococci): blood agar plates • Incubate o.n. at 37° C. […] (Should be used within 15 min of preparation). • Dilute the 0.5 McFarland suspension 1:100 into MH broth. […] Plate 10 μl of the dilution on MH agar plates (×2). Incubate o.n. at 37° C., count the colonies and calculate the final CFU/ml inoculum in the plate by multiplying the average number of colonies with 10000 and divide by 2. The final inoculum should be between 3-7×10^5 CFU/ml. • Add 50 μl of the prepared bacterial suspension to each well in the microtiter plate except negative growth control. Preparation of Compounds/Antibiotics • Calculate the desired concentration-range and volume of the compounds/antibiotics in the assay. […] Dilute the stock solution in MH broth. Make subsequent 2-fold dilutions in MH broth of the desired concentrations if a concentration range is to be tested (remember the extra dilution factor in the assay plate). Always include extra volume for pipetting. Take into consideration stock solutions that are made in buffers that have an effect on bacterial growth (e.g. DMSO).

[2] = test system: P. aeruginosa 50692172 (NDM-1); assay: as above
Experimental: as §1

[3] = test system: K. pneumoniae 50732159 (No MBL); assay: as above; conditions: inhibitor 25 mg/L
Experimental: as §1

[4] = test system: P. aeruginosa K34-7 (VIM-2); assay: Microbroth dilution MIC of carbapenem with/without inhibitor; conditions: for Meropenem activity (MIC) in presence of inhibitor: inhibitor 25 mg/L; for Meropenem activity in presence of inhibitor: inhibitor 63 mg/L
Experimental: as §1

[5] = test system: resistant gram-negative MBL-based bacteria; assay: MICx: adjuvant concentration giving carbapenem MIC ≤ 2 mg/L; conditions: lowest concentration of compound X that results in a MIC value of ≤ 2 mg/L for carbapenem antibiotics
Experimental: as §1

human hepG2 cells = assay: In vitro toxicity in human hepG2 cells (AlamarBlue viability)
Experimental: For viability assays, cells were seeded in white 96-well Nunclon plates at a density of 20,000 cells/well and left overnight to adhere before experiments were conducted. Zn chelators dissolved in DMSO were added to white 96-well plates containing 20000 HepG2 cells/well at concentrations ranging from 1 to 1×10^−6 mM (max DMSO concentration never exceeded 1%) and incubated for 24 hours at 37° C. After 24 hours, AlamarBlue® cell viability reagent (Thermo Fisher, Carlsbad, USA) was added (10% final concentration) and incubated for 4 hours at 37° C.

[6] = test system: K. pneumoniae K66-45 and P. aeruginosa K34-7; assay: Microbroth dilution MIC, carbapenem + inhibitor, two resistant clinical isolates; conditions: with meropenem
Experimental: • Plate bacterial strain(s) on appropriate media: • Gram-negative bacteria with ESBLs or carbapenemases: green agar plates with 100 mg/L ampicillin • Gram-negative bacteria without β-lactamases: green agar plates • Gram-positive bacteria (Staphylococci and Enterococci): blood agar plates • Incubate o.n. at 37° C. Day 2: Prepare the Bacterial Inoculum: • Prepare a 0.5 McFarland suspension of bacteria in 0.85% NaCl. (Should be used within 15 min of preparation). • Dilute the 0.5 McFarland suspension 1:100 into MH broth. Check the inoculum by diluting the prepared bacterial suspension 1:100 (10 μl bacterial suspension+990 μl 0.85% NaCl). Plate 10 μl of the dilution on MH agar plates (×2). Incubate o.n. at 37° C., count the colonies and calculate the final CFU/ml inoculum in the plate by multiplying the average number of colonies with 10000 and divide by 2. The final inoculum should be between 3-7×10^5 CFU/ml. • Add 50 μl of the prepared bacterial suspension to each well in the microtiter plate except negative growth control. Preparation of Compounds/Antibiotics • Calculate the desired concentration-range and volume of the compounds/antibiotics in the assay. […] Dilute the stock solution in MH broth. Make subsequent 2-fold dilutions in MH broth of the desired concentrations if a concentration range is to be tested (remember the extra dilution factor in the assay plate). Always include extra volume for pipetting. Take into consideration stock solutions that are made in buffers that have an effect on bacterial growth (e.g. DMSO).

K. pneumoniae K66-45 = conditions: inhibitor 25 mg/L
Experimental: After plating and grown overnight at 37° C., only single colonies, ignoring any touching the edges of the plate, were counted.
10^9 CFU K66-45 (Mueller-Hinton broth, no selection) was plated and grown overnight, 37° C. Only single colonies, ignoring any touching the edges of the plate, were counted.

[7] = test system: K. pneumoniae K66-45 (NDM-1); assay: Microbroth dilution MIC of carbapenem with/without inhibitor; conditions: for Meropenem activity in presence of inhibitor: inhibitor 63 mg/L; for MIC: Klebsiella pneumoniae
Experimental: as §1

[8] = human hepG2 cells, 24 hours, AlamarBlue, 8 replicates, read-out: IC50
[9] = human hepG2 cells, read-out: IC50h

Row | SMILES | Meropenem activity in presence of inhibitor [1] [mg/L] | Meropenem activity in presence of inhibitor [3] [mg/L] | MICx [5] | IC50 (human hepG2 cells; [9]) [µM] | adjuvant effect at an inhibitor concentration of 25 mg/L [6] | also measured
1 | O=C(Cc1ccc(NC(=O)CN(CCN(Cc2ccccn2)Cc2ccccn2)Cc2ccccn2)cc1)NC[C@@H](O)CO [Example 23, (R)-2-((2-(bis(pyridin-2-ylmethyl)amino)ethyl)(pyridin-2-ylmethyl)amino)-N-(4-(2-(2,3-dihydroxypropylamino)-2-oxoethyl)phenyl)acetamide] | >64 | 32 |  |  |  | Meropenem activity in presence of inhibitor ([2]; inhibitor 25 mg/L): 1 mg/L; Meropenem activity (MIC) in presence of inhibitor [4]: 1 µg/mL
2 | O=C(Cc1ccc(NC(=O)c2ccc(CN(Cc3ccccn3)Cc3ccccn3)nc2)cc1)NC(CO)(CO)CO [Example 100, 6-((bis(pyridin-2-ylmethyl)amino)methyl)-N-(4-(2-(1,3-dihydroxy-2-(hydroxymethyl)propan-2-ylamino)-2-oxoethyl)phenyl)nicotinamide] | >64 | 32 | 31 µM | 118 |  | IC50 (human hepG2 cells; [8]): > 100 µM
3 | CN(C[C@H](O)[C@@H](O)[C@H](O)[C@H](O)CO)C(=O)c1ccc(CN(Cc2ccccn2)Cc2ccccn2)s1 [Example 182, 5-((bis(pyridin-2-ylmethyl)amino)methyl)-N-methyl-N-((2S,3R,4R,5R)-2,3,4,5,6-pentahydroxyhexyl)thiophene-2-carboxamide] |  |  |  |  | completely abolishes the adjuvant effect | 
4 | COC(=O)[C@@H](C)NC(=O)[C@@H](C)NC(=O)Cn1cc(CN(Cc2ccccn2)Cc2ccccn2)nn1 [Example 194, Methyl (2-(4-((bis(pyridin-2-ylmethyl)amino)methyl)1H-1,2,3-triazol-1-yl)acetyl)-D-alanyl-D-alaninate, reference compound] | >64 | 32 |  |  |  | RF - no of colonies (K. pneumoniae K66-45; MEM 1 mg/L): tntc (tntc = too numerous to count, plates containing either confluent growth or >1000 colonies); RF - no of colonies (K. pneumoniae K66-45; MEM 2 mg/L): tntc (tntc = too numerous to count, plates containing either confluent growth or >1000 colonies); RF - no of colonies (K. pneumoniae K66-45; MEM 4 mg/L): tntc (tntc = too numerous to count, plates containing either confluent growth or >1000 colonies); RF - no of colonies (K. pneumoniae K66-45; MEM 8 mg/L): tntc (tntc = too numerous to count, plates containing either confluent growth or >1000 colonies); Meropenem activity in presence of inhibitor ([2]; inhibitor 25 mg/L): 32 mg/L
5 | CN(C[C@H](O)[C@@H](O)[C@H](O)[C@H](O)CO)C(=O)Cc1ccc(NC(=O)c2ccc(CN(Cc3ccccn3)Cc3ccccn3)nc2)cc1 [Example 99, 6-((bis(pyridin-2-ylmethyl)amino)methyl)-N-(4-(2-(methyl((2S,3R,4R,5R)-2,3,4,5,6-pentahydroxyhexyl)amino)-2-oxoethyl)phenyl)nicotinamide] | >64 | 32 | 31 µM | 217 |  | IC50 (human hepG2 cells; [8]): 217 µM
6 | O=C(CN(CCN(Cc1ccccn1)Cc1ccccn1)Cc1ccccn1)Nc1ccc(CCNC(=O)c2cnccn2)cc1 [Example 27, N-(4-(2-((2-(bis(pyridin-2-ylmethyl)amino)ethyl)(pyridin-2-ylmethyl)amino)acetamido)phenethyl)pyrazine-2-carboxamide] |  |  |  |  |  | Meropenem activity in presence of inhibitor ([7]; K. pneumoniae K66-45 NDM-1): 0.125 mg/L; Meropenem activity in presence of inhibitor [4]: 1 mg/L
7 | C[C@H](CS)C(=O)N1CCC[C@H]1C(=O)O [Captopril, reference compound] |  |  | > 1000^d μM | 33 |  | Meropenem activity in presence of inhibitor ([2]; inhibitor 63 mg/L): 32 to 64 mg/L; Meropenem activity in presence of inhibitor ([7]; K. pneumoniae K66-45 NDM-1): 64 mg/L; Meropenem activity in presence of inhibitor [4]: 32 mg/L
8 | CN(C[C@H](O)[C@@H](O)[C@H](O)[C@H](O)CO)C(=O)c1ccc(CN(Cc2ccccc2)Cc2ccccn2)nc1 [Example 187, 6-((benzyl(pyridin-2-ylmethyl)amino)methyl)-N-methyl-N-((2S,3R,4R,5R)-2,3,4,5,6-pentahydroxyhexyl)nicotinamide] |  |  |  |  | completely abolishes the adjuvant effect | 
9 | COC(=O)c1ccc(CN(Cc2ccccn2)Cc2ccccn2)s1 [Example 180, Methyl 5-((bis(pyridin-2-ylmethyl)amino)methyl)thiophene-2-carboxylate] |  |  |  |  | completely abolishes the adjuvant effect | IC50 (human hepG2 cells; Homo sapiens, HepG2, 24 h): ~80 µM
10 | CN(C[C@H](O)[C@@H](O)[C@H](O)[C@H](O)CO)C(=O)c1ccc(CN(Cc2ccccc2)Cc2ccccc2)nc1 [Example 185, 6-((dibenzylamino)methyl)-N-methyl-N-((2S,3R,4R,5R)-2,3,4,5,6-pentahydroxyhexyl)nicotinamide] |  |  |  |  | completely abolishes the adjuvant effect | 
11 | CN(C[C@H](O)[C@@H](O)[C@H](O)[C@H](O)CO)C(=O)Cc1ccc(NC(=O)CN(CCN(Cc2ccccn2)Cc2ccccn2)Cc2ccccn2)cc1 [Example 25, 2-(4-(2-((2-(bis(pyridin-2-ylmethyl)amino)ethyl)(pyridin-2-ylmethyl)amino)acetamido)phenyl)-N-methyl-N-(2,3,4,5,6-pentahydroxyhexyl)acetamide] | >64 | 64 | 31 µM | 113 |  | RF - no of colonies (K. pneumoniae K66-45; MEM 1 mg/L): 64 colonies; Meropenem activity in presence of inhibitor ([2]; inhibitor 25 mg/L): 2 mg/L; IC50 (human hepG2 cells; [8]): 113 µM; MIC ([7]; inhibitor 31.25 μM, 50 μM and 100 μM, K. pneumoniae K66-45, read-out: MIC of MEM in the presence of inhibitor): 0.125 µg/mL; Meropenem activity (MIC) in presence of inhibitor [4]: 2 µg/mL
12 | C[C@@H](O)[C@H]1C(=O)N2C(C(=O)O)=C(S[C@@H]3CN[C@H](CNS(N)(=O)=O)C3)[C@H](C)[C@H]12 [doripenem, reference compound] |  |  |  |  |  | MIC ([7]; K. pneumoniae K66-45 NDM-1, read-out: MIC of doripenem alone): > 64 µg/mL; MIC ([4]; Pseudomonas aeruginosa, read-out: MIC of doripenem alone): 64 µg/mL
